Source: patent publication US20250228239A1, “MOLECULES HAVING PESTICIDAL UTILITY, AND INTERMEDIATES, COMPOSITIONS, AND PROCESSES, RELATED THERETO” (priority 2024, published 2025)
Read-outs that look alike come from different tables or passages of the source.

What was measured:
Type in all cases: in vivo
[1] = tested on: Cabbage Looper (Trichoplusia ni, TRIPNI); assay: Bioassays on Cabbage Looper (CL), 128-well diet tray assay; conditions: Trichoplusia ni
How it was run: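 Each of eight wells receives artificial diet treated at 50 μg/cm^2 with the test molecule, then one to five second-instar larvae. Incubation runs five to seven days at 25° C with a 14:10 light-dark cycle under vented covers. Mortality is scored per well as a percentage and averaged.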

[2] = tested on: Beet Armyworm (Spodoptera exigua, LAPHEG); assay: Bioassays on Beet Armyworm (BAW), 128-well diet tray assay; conditions: Spodoptera exigua
How it was run: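 Percent larval mortality, averaged across eight wells, scored after five to seven days at 25° C. under 14:10 light-dark. Each well held one to five second instars feeding on diet dosed at 50 μg/cm^2 with compound from 90:10 acetone-water, solvent dried off.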

[3] = tested on: Yellow Fever Mosquito (Aedes aegypti, AEDSAE); conditions: for YFM rating: Table ABC / ABC-DP rating
How it was run: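 Larvae ~1 day old, in liver powder/water; compound from 4000 ppm DMSO stock diluted with water/acetone (90:10); 6 reps; lidded, RT, 3 d; mortality scored per well, rated.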

[4] = Cabbage Looper, Table ABC / ABC-DP rating, read-out: CL rating
[5] = Beet Armyworm, Table ABC / ABC-DP rating, read-out: BAW rating
[6] = Table ABC: Biological Results, species CL, read-out: CL
[7] = Table ABC: Biological Results, species BAW, read-out: BAW
[8] = Table ABC: Biological Results, species YFM
[9] = Cabbage Looper, rating class, read-out: CL
[10] = Beet Armyworm, rating class, read-out: BAW
[11] = Yellow Fever Mosquito, rating class

| Compound | pest or weed control at 50 µg/cm2 [1, 4] [%] | pest or weed control at 50 µg/cm2 [2, 5] [%] | YFM rating ([3]; Yellow Fever Mosquito) | pest or weed control at 50 µg/cm2 [1, 6] [%] | pest or weed control at 50 µg/cm2 [2, 7] [%] | YFM [3, 8] | other results |
| --- | --- | --- | --- | --- | --- | --- | --- |
| C=CCC(=O)Nc1c(F)ccc(NC(=O)c2cc(NC(=O)[C@H]3[C@H](c4ccc(F)c(C(F)(F)F)c4)C3(Cl)Cl)ccc2Cl)c1F [F1874, N-(3-(But-3-enamido)-2,4-difluorophenyl)-2-chloro-5-((1R,3R)-2,2-dichloro-3-(4-fluoro-3-(trifluoromethyl)phenyl)cyclopropane-1-carboxamido)benzamide] | 50 to 100 | 50 to 100 | A (80–100) |  |  |  |  |
| O=C(CCC(F)(OC(F)(F)F)C(F)(F)F)Nc1c(F)ccc(NC(=O)c2cc(NC(=O)[C@H]3[C@H](c4ccc(F)c(C(F)(F)F)c4)C3(Cl)Cl)ccc2Cl)c1F (stereo partly drawn) [F1858, 2-Chloro-5-((1R,3R)-2,2-dichloro-3-(4-fluoro-3-(trifluoromethyl)phenyl)cyclopropane-1-carboxamido)-N-(2,4-difluoro-3-(4,5,5,5-tetrafluoro-4-(trifluoromethoxy)pentanamido)phenyl)benzamide] | 50 to 100 | 50 to 100 | A (80–100) |  |  |  |  |
| COCC(C)NNC(=O)c1cc(NC(=O)[C@H]2[C@H](c3cc(Cl)cc(Cl)c3)C2(Cl)Cl)ccc1Cl (relative stereo) [F2551, trans-2,2-Dichloro-N-(4-chloro-3-(2-(1-methoxypropan-2-yl)hydrazine-1-carbonyl)phenyl)-3-(3,5-dichlorophenyl)cyclopropane-1-carboxamide] | 50 to 100 | 50 to 100 | A (80–100) |  |  |  |  |
| CN(C(=O)C(F)F)c1c(F)ccc(NC(=O)c2cc(NC(=O)[C@H]3[C@H](c4ccc(Cl)c(Cl)c4)C3(Cl)Cl)ccc2Cl)c1F [F1271, 2-Chloro-5-((1R,3R)-2,2-dichloro-3-(3,4-dichlorophenyl)cyclopropane-1-carboxamido)-N-(3-(2,2-difluoro-N-methylacetamido)-2,4-difluorophenyl)benzamide] |  |  |  | 50 to 100 | 50 to 100 | A (80–100) |  |
| CN(C(=O)CC#N)c1c(F)ccc(NC(=O)c2cc(NC(=O)[C@H]3[C@H](c4ccc(F)c(C(F)(F)F)c4)C3(Cl)Cl)ccc2Cl)c1F [F1752, 2-Chloro-N-(3-(2-cyano-N-methylacetamido)-2,4-difluorophenyl)-5-((1R,3R)-2,2-dichloro-3-(4-fluoro-3-(trifluoromethyl)phenyl)cyclopropane-1-carboxamido)benzamide] |  |  |  |  |  |  | pest or weed control at 50 µg/cm2 [1, 9]: 50 to 100%; pest or weed control at 50 µg/cm2 [2, 10]: 50 to 100%; YFM [3, 11]: A (80–100) |
| O=C(NCCNC(=O)C(F)(F)F)c1cc(NC(=O)[C@H]2[C@H](c3cc(Cl)cc(Cl)c3)C2(Cl)Cl)ccc1Cl (relative stereo) [F2066, trans-2-Chloro-5-(2,2-dichloro-3-(3,5-dichlorophenyl)cyclopropane-1-carboxamido)-N-(2-(2,2,2-trifluoroacetamido)ethyl)benzamide] | 50 to 100 | 50 to 100 | A (80–100) |  |  |  |  |
| C=Cc1cc(F)cc(F)c1NC(=O)c1cc(NC(=O)[C@H]2[C@H](c3cc(Cl)cc(Cl)c3)C2(Cl)Cl)ccc1Cl (relative stereo) [F1316, trans-2-Chloro-5-(2,2-dichloro-3-(3,5-dichlorophenyl)cyclopropane-1-carboxamido)-N-(2,4-difluoro-6-vinylphenyl)benzamide] |  |  |  | 50 to 100 | 50 to 100 | A (80–100) |  |
| O=C(NNc1cc(Cl)ccc1Cl)c1cc(NC(=O)[C@H]2[C@H](c3cc(Cl)cc(Cl)c3)C2(Cl)Cl)ccc1Cl (relative stereo) [F2561, trans-2,2-Dichloro-N-(4-chloro-3-(2-(2,5-dichlorophenyl)hydrazine-1-carbonyl)phenyl)-3-(3,5-dichlorophenyl)cyclopropane-1-carboxamide] | 50 to 100 | 50 to 100 | B (More than 0 – Less than 80) |  |  |  |  |
| CC(=O)Nc1ccc(NC(=O)c2cc(NC(=O)[C@H]3[C@H](c4ccc(F)c(Cl)c4)C3(Cl)Cl)cc(C)c2F)cc1 (relative stereo) [F1139, trans-N-(4-Acetamidophenyl)-5-(2,2-dichloro-3-(3-chloro-4-fluorophenyl)-cyclopropane-1-carboxamido)-2-fluoro-3-methylbenzamide] |  |  |  | 50 to 100 | 50 to 100 | A (80–100) |  |
| CCOC(C)C(=O)Nc1c(F)ccc(N(C)C(=O)c2cc(NC(=O)[C@H]3[C@H](c4ccc(Cl)c(Cl)c4)C3(Cl)Cl)ccc2Cl)c1F (stereo partly drawn) [F1794, 2-Chloro-5-((1R,3R)-2,2-dichloro-3-(3,4-dichlorophenyl)cyclopropane-1-carboxamido)-N-(3-(2-ethoxypropanamido)-2,4-difluorophenyl)-N-methylbenzamide] | 50 to 100 | 50 to 100 | B (More than 0 – Less than 80) |  |  |  |  |
| O=C(Nc1ccc(F)cc1F)c1cc(NC(=O)[C@H]2[C@H](c3ccc(F)c(Cl)c3)C2(Cl)Cl)cc(F)c1Cl (relative stereo) [F1153, trans-2-Chloro-5-(2,2-dichloro-3-(3-chloro-4-fluorophenyl)cyclopropane-1-carboxamido)-N-(2,4-difluorophenyl)-3-fluorobenzamide] |  |  |  | 50 to 100 | 50 to 100 | A (80–100) |  |
| O=C(Nc1ccc(F)cc1)c1cc(NC(=O)[C@H]2[C@H](c3cc(Cl)cc(Cl)c3)C2(F)F)ccc1Cl (relative stereo) [F1057, trans-2-Chloro-5-(3-(3,5-dichlorophenyl)-2,2-difluorocyclopropane-1-carboxamido)-N-(4-fluorophenyl)benzamide] |  |  |  | 50 to 100 | 50 to 100 | A (80–100) |  |
| O=C(Nc1ccc(F)cc1)c1cc(NC(=O)[C@H]2[C@H](c3ccc(F)c(C(F)(F)F)c3)C2(Cl)Cl)c(F)cc1Cl [F1725, 2-Chloro-5-((1R,3R)-2,2-dichloro-3-(4-fluoro-3-(trifluoromethyl)phenyl)cyclopropane-1-carboxamido)-4-fluoro-N-(4-fluorophenyl)benzamide] |  |  |  |  |  |  | pest or weed control at 50 µg/cm2 [1, 9]: 50 to 100%; pest or weed control at 50 µg/cm2 [2, 10]: 50 to 100%; YFM [3, 11]: A (80–100) |
| O=C(NCC(F)(F)F)c1cc(NC(=O)C2C(c3cc(Br)cc(S(F)(F)(F)(F)F)c3)C2(Cl)Cl)ccc1Cl (stereo not drawn) [F2009, cis-5-(3-(3-Bromo-5-(pentafluoro-λ^6-sulfanyl)phenyl)-2,2-dichiorocyclopropane-1-carboxamido)-2-chloro-N-(2,2,2-trifluoroethyl)benzamide] | 50 to 100 | 50 to 100 | A (80–100) |  |  |  |  |
| CC(C)=NNC(=O)c1cc(NC(=O)[C@H]2[C@H](c3cc(Cl)cc(Cl)c3)C2(Cl)Cl)ccc1Cl (relative stereo) [F3010, trans-2,2-Dichloro-N-(4-chloro-3-(2-(propan-2-ylidene)hydrazine-1-carbonyl)phenyl)-3-(3,5-dichlorophenyl)cyclopropane-1-carboxamide] | 50 to 100 | 50 to 100 | A (80–100) |  |  |  | mortality at 50 µg/cm2 ([1]; 168 h, second instar larvae, 50 μg/cm^2 of test molecule on artificial diet, 25° C., five to seven days, average of eight wells, read-out: CL % Control (or Mortality) rating): 50 to 100%; mortality at 50 µg/cm2 ([2]; 168 h, second instar larvae, 50 μg/cm^2 of test molecule on artificial diet, 25° C., five to seven days, average of eight wells, read-out: BAW % Control (or Mortality) rating): 50 to 100%; YFM % Control (or Mortality) rating ([3]; about 1 day-old larvae, 4000 ppm master solution diluted with 90:10 water/acetone, 15 μL per well plus 220 μL larval mixture, 3 days, mortality): A (80–100) |
| CC(=O)Nc1ccc(NC(=O)c2cc(NC(=O)[C@H]3[C@H](c4ccc(F)c(Cl)c4)C3(Cl)Cl)cc(C(F)(F)F)c2Cl)cc1 (relative stereo) [F1216, trans-N-(4-Acetamidophenyl)-2-chloro-5-(2,2-dichloro-3-(3-chloro-4-fluorophenyl)cyclopropane-1-carboxamido)-3-(trifluoromethyl)benzamide] |  |  |  | 50 to 100 | 50 to 100 | A (80–100) |  |
| O=C(Nc1ccc(F)c(NC(=O)C(F)(F)F)c1F)c1cc(NC(=O)[C@H]2[C@H](c3ccc(Cl)c(Cl)c3)C2(Cl)Cl)cc(F)c1F [F1444, 5-((1R,3R)-2,2-Dichloro-3-(3,4-dichlorophenyl)cyclopropane-1-carboxamido)-N-(2,4-difluoro-3-(2,2,2-trifluoroacetamido)phenyl)-2,3-difluorobenzamide] |  |  |  |  |  |  | pest or weed control at 50 µg/cm2 [1, 9]: 50 to 100%; pest or weed control at 50 µg/cm2 [2, 10]: 50 to 100%; YFM [3, 11]: A (80–100) |
| Cc1c(F)c(NC(=O)c2cc(NC(=O)[C@H]3[C@H](c4ccc(F)c(C(F)(F)F)c4)C3(Cl)Cl)ccc2Cl)cc(NC(=O)C(F)F)c1F [F1680, 2-Chloro-5-((1R,3R)-2,2-dichloro-3-(4-fluoro-3-(trifluoromethyl)phenyl)cyclopropane-1-carboxamido)-N-(5-(2,2-difluoroacetamido)-2,4-difluoro-3-methylphenyl)benzamide] |  |  |  |  |  |  | pest or weed control at 50 µg/cm2 [1, 9]: 50 to 100%; pest or weed control at 50 µg/cm2 [2, 10]: 50 to 100%; YFM [3, 11]: B (More than 0 – Less than 80) |
